The target of assay [1] is T1, HCV polymerase (NS5B) type 1b (Hepatitis C virus genotype 1b, UniProt P26663).
T1 construct: a region encoding NS5B (J Virol 1991 March, 65(3), 1105-13, 544 amino acids after deletion of 47 amino acids on the C-terminal); 6xHis (C); made in house; host or cells: Escherichia coli
The assay can be described thus: Assay of enzyme (HCV polymerase) inhibitory activity, type 1b enzyme. The format is biochemical, HCV BK strain (type 1b). The following applies: HCV polymerase inhibitory activity IC50, 1b, type 1b enzyme. The essentials:
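Polymerase activity was followed as radiolabelled UTP incorporation by E. coli-expressed, His-tagged NS5B of HCV type 1b lacking its last 47 residues. Conditions: 2 μM UTP, 50 μM other NTPs, Mg2+ buffer at pH 7.5, 25 °C for 60 min. Inhibition relative to compound-free reactions gave IC50.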

Assay [2] deals with T2, HCV polymerase (NS5B) type 1a (Hepatitis C virus genotype 1a, UniProt P26664).
T2 construct: made in house; host or cells: Escherichia coli (by the 'similar method' of the 1b enzyme)
The experiment in a line: Assay of enzyme (HCV polymerase) inhibitory activity, type 1a enzyme. The format is biochemical, HCV type 1a (cloned from the blood of patients). The following applies: HCV polymerase inhibitory activity IC50, 1a, type 1a enzyme. The procedure, abridged: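 IC50 values derive from radioactivity of newly synthesized RNA with versus without test compound. The enzyme was C-terminally truncated type 1a NS5B, 1.5 μg/ml, run 60 min at 25° C with 3H-UTP-labelled nucleotides.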

The structures appear in SMILES notation. A value given as a limit tells only on which side of the number the result lay.

As a reminder, the IC50 is the midpoint of a concentration-inhibition curve. Read a high IC50 as a need for much substance. With `CCC(F)(F)c1ccc(CNC(=O)[C@H]2CN(c3nc4nc(C)ncc4s3)CCN2S(=O)(=O)c2ccc(C(F)(F)F)cc2)cc1` [Example 935, (R)-4-(5-methyl-thiazolo[4,5-d]pyrimidin-2-yl)-1-(4-trifluoromethyl-benzenesulfonyl)-piperazine-2-carboxylic acid 4-(1,1-difluoro-propyl)-benzylamide], the IC50 in assay [1] and in assay [2] was less than 0.1 µM in each case.

Consider `O=C(NCc1ccc(OC(F)(F)F)cc1)[C@H]1CN(C(=O)Nc2nnc(Br)s2)CCN1S(=O)(=O)c1ccc(OC(F)(F)F)cc1` [Example 936, (R)-4-(4-trifluoromethoxy-benzenesulfonyl)-piperazine-1,3-dicarboxylic acid 1-[(5-bromo-[1,3,4]thiadiazol-2-yl)-amide] 3-(4-trifluoromethoxy-benzylamide)], for which the IC50 in assay [1] and in assay [2] was greater than 1 µM throughout.

`O=C(NCc1ccc(OC(F)(F)F)cc1)[C@H]1CN(c2nc3c(=O)[nH]ncc3s2)CCN1S(=O)(=O)c1ccc(OC(F)(F)F)cc1` [Example 937, (R)-4-(4-oxo-4,5-dihydro-thiazolo[4,5-d]pyridazin-2-yl)-1-(4-trifluoromethoxy-benzenesulfonyl)-piperazine-2-carboxylic acid 4-trifluoromethoxy-benzylamide]: the IC50 in assay [1] and in assay [2] was less than 0.1 µM throughout.

On to `COC(F)(F)c1ccc(CNC(=O)[C@H]2CN(c3nc4cn[nH]c(=O)c4s3)CCN2S(=O)(=O)c2ccc(OC(F)(F)F)cc2)cc1` [Example 938, (R)-4-(7-oxo-6,7-dihydro-thiazolo[4,5-d]pyridazin-2-yl)-1-(4-trifluoromethoxy-benzenesulfonyl)-piperazine-2-carboxylic acid 4-(difluoro-methoxy-methyl)-benzylamide], for which the figures for the IC50 in assay [1] and in assay [2] were less than 0.1 µM and 0.1 to 1 µM, respectively.

Regarding `O=C(NCc1ccc(OC(F)(F)F)cc1)[C@H]1CN(c2nc3c(CO)nncc3s2)CCN1S(=O)(=O)c1ccc(OC(F)(F)F)cc1` [Example 940, (R)-4-(4-hydroxymethyl-thiazolo[4,5-d]pyridazin-2-yl)-1-(4-trifluoromethoxy-benzenesulfonyl)-piperazine-2-carboxylic acid 4-trifluoromethoxy-benzylamide], the IC50 in assay [1] and in assay [2] was less than 0.1 µM in each case.

`Cc1nc(Cl)c2sc(N3CCN(S(=O)(=O)c4ccc(OC(F)(F)F)cc4)[C@@H](C(=O)NCc4ccc(OC(F)F)cc4)C3)nc2n1` [Example 941, (R)-4-(7-chloro-5-methyl-thiazolo[4,5-d]pyrimidin-2-yl)-1-(4-trifluoromethoxy-benzenesulfonyl)-piperazine-2-carboxylic acid 4-difluoromethoxy-benzylamide]: the IC50 in assay [1] and in assay [2] was less than 0.1 µM in each case.

In the case of `Cc1ncc2sc(N3CCN(S(=O)(=O)c4ccc(OC(F)(F)F)cc4)[C@@H](C(=O)NCc4ccc(OC(F)F)cc4)C3)nc2n1` [Example 942, (R)-4-(5-methyl-thiazolo[4,5-d]pyrimidin-2-yl)-1-(4-trifluoromethoxy-benzenesulfonyl)-piperazine-2-carboxylic acid 4-difluoromethoxy-benzylamide], the IC50 in assay [1] and in assay [2] was less than 0.1 µM in each case.

For the compound `Nc1ncc2sc(N3CCN(S(=O)(=O)c4ccc(OC(F)(F)F)cc4)[C@@H](C(=O)NCc4ccc(OC(F)(F)F)cc4)C3)nc2n1` [Example 943, (R)-4-(5-amino-thiazolo[4,5-d]pyrimidin-2-yl)-1-(4-trifluoromethoxy-benzenesulfonyl)-piperazine-2-carboxylic acid 4-trifluoromethoxy-benzylamide], the IC50 in assay [1] and in assay [2] was less than 0.1 µM each time.

For `COc1nncc2nc(N3CCN(S(=O)(=O)c4ccc(OC(F)(F)F)cc4)[C@@H](C(=O)NCc4ccc(OC(F)(F)F)cc4)C3)sc12` [Example 944, (R)-4-(7-methoxy-thiazolo[4,5-d]pyridazin-2-yl)-1-(4-trifluoromethoxy-benzenesulfonyl)-piperazine-2-carboxylic acid 4-trifluoromethoxy-benzylamide], the IC50 in assay [1] and in assay [2] was less than 0.1 µM in each case.

As to `CN(C)c1ncc2sc(N3CCN(S(=O)(=O)c4ccc(OC(F)(F)F)cc4)[C@@H](C(=O)NCc4ccc(OC(F)(F)F)cc4)C3)nc2n1` [Example 945, (R)-4-(5-dimethylamino-thiazolo[4,5-d]pyrimidin-2-yl)-1-(4-trifluoromethoxy-benzenesulfonyl)-piperazine-2-carboxylic acid 4-trifluoromethoxy-benzylamide], the IC50 in assay [1] and in assay [2] was less than 0.1 µM throughout.

On to `O=C(NCc1ccc(OC(F)(F)F)cc1)[C@H]1CN(c2nc3nc(NCCO)ncc3s2)CCN1S(=O)(=O)c1ccc(OC(F)(F)F)cc1` [Example 946, (R)-4-[5-(2-hydroxy-ethylamino)-thiazolo[4,5-d]pyrimidin-2-yl]-1-(4-trifluoromethoxy-benzenesulfonyl)-piperazine-2-carboxylic acid 4-trifluoromethoxy-benzylamide], for which the IC50 in assay [1] and in assay [2] was less than 0.1 µM each time.

As for `O=C(NCc1ccc(OC(F)(F)F)cc1)[C@H]1CN(c2nc3nc(Cl)ncc3s2)CCN1S(=O)(=O)c1ccc(C(F)(F)F)s1` [Example 947, (R)-4-(5-chloro-thiazolo[4,5-d]pyrimidin-2-yl)-1-(5-trifluoromethyl-thiophene-2-sulfonyl)-piperazine-2-carboxylic acid 4-trifluoromethoxy-benzylamide], the IC50 in assay [1] and in assay [2] was less than 0.1 µM each time.

Turning to `COC(=O)c1cc(=O)nc2sc(N3CCN(S(=O)(=O)c4ccc(OC(F)(F)F)cc4)[C@@H](C(=O)NCc4ccc(OC(F)(F)F)cc4)C3)nn12` [Example 948, 7-oxo-2-[(R)-4-(4-trifluoromethoxy-benzenesulfonyl)-3-(4-trifluoromethoxy-benzylcarbamoyl)-piperazin-1-yl]-7H-[1,3,4]thiadiazolo[3,2-a]pyrimidine-5-carboxylic acid methyl ester], the half-inhibitory concentration (IC50) in assay [1] and in assay [2] was less than 0.1 µM in each case.

For the compound `CCc1ncc2sc(N3CCN(S(=O)(=O)c4ccc(OC(F)(F)F)cc4)[C@@H](C(=O)NCc4ccc(OC(F)(F)F)cc4)C3)nc2n1` [Example 949, (R)-4-(5-ethyl-thiazolo[4,5-d]pyrimidin-2-yl)-1-(4-trifluoromethoxy-benzenesulfonyl)-piperazine-2-carboxylic acid 4-trifluoromethoxy-benzylamide], the IC50 in assay [1] and in assay [2] was less than 0.1 µM throughout.

Take `CCc1ncc2sc(N3CCN(S(=O)(=O)c4ccc(C(F)(F)F)cc4)[C@@H](C(=O)NCc4ccc(OC(F)(F)F)cc4)C3)nc2n1` [Example 950, (R)-4-(5-ethyl-thiazolo[4,5-d]pyrimidin-2-yl)-1-(4-trifluoromethyl-benzenesulfonyl)-piperazine-2-carboxylic acid 4-trifluoromethoxy-benzylamide]: the IC50 in assay [1] and in assay [2] was less than 0.1 µM throughout.

On to `O=C(NCc1ccc(OC(F)(F)F)cc1)[C@H]1CN(c2nn3c(C(F)(F)F)nnc3s2)CCN1S(=O)(=O)c1ccc(OC(F)(F)F)cc1` [Example 951, (R)-1-(4-trifluoromethoxy-benzenesulfonyl)-4-(3-trifluoromethyl-[1,2,4]triazolo[3,4-b][1,3,4]thiadiazol-6-yl)-piperazine-2-carboxylic acid 4-trifluoromethoxy-benzylamide], for which the IC50 in assay [1] and in assay [2] was less than 0.1 µM in each case.

As to `CNc1ncc2sc(N3CCN(S(=O)(=O)c4ccc(OC(F)(F)F)cc4)[C@@H](C(=O)NCc4ccc(OC(F)(F)F)cc4)C3)nc2n1` [Example 952, (R)-4-(5-methylamino-thiazolo[4,5-d]pyrimidin-2-yl)-1-(4-trifluoromethoxy-benzenesulfonyl)-piperazine-2-carboxylic acid 4-trifluoromethoxy-benzylamide], the IC50 in assay [1] and in assay [2] was less than 0.1 µM throughout.

Regarding `O=C(NCc1ccc(OC(F)(F)F)cc1)[C@H]1CN(c2nn3cnnc3s2)CCN1S(=O)(=O)c1ccc(C(F)(F)F)cc1` [Example 953, (R)-4-[1,2,4]triazolo[3,4-b][1,3,4]thiadiazol-6-yl-1-(4-trifluoromethyl-benzenesulfonyl)-piperazine-2-carboxylic acid 4-trifluoromethoxy-benzylamide], the IC50 in assay [1] and in assay [2] was less than 0.1 µM each time.

Turning to `O=C(NCc1ccc(OC(F)F)cc1)[C@H]1CN(c2nn3cnnc3s2)CCN1S(=O)(=O)c1ccc(OC(F)(F)F)cc1` [Example 954, (R)-4-[1,2,4]triazolo[3,4-b][1,3,4]thiadiazol-6-yl-1-(4-trifluoromethoxy-benzenesulfonyl)-piperazine-2-carboxylic acid 4-difluoromethoxy-benzylamide], the IC50 in assay [1] and in assay [2] was less than 0.1 µM in each case.

Consider `O=C(NCc1ccc(OC(F)F)cc1)[C@H]1CN(c2nc3nc(Cl)ncc3s2)CCN1S(=O)(=O)c1ccc(OC(F)F)cc1` [Example 955, (R)-4-(5-chloro-thiazolo[4,5-d]pyrimidin-2-yl)-1-(4-difluoromethoxy-benzenesulfonyl)-piperazine-2-carboxylic acid 4-difluoromethoxy-benzylamide], for which the IC50 in assay [1] and in assay [2] was less than 0.1 µM in each case.

Source of the values: patent publication US8017612B2, “Piperazine compound and use thereof as a HCV polymerase inhibitor” (priority 2006, dated 2011).
